# US20230028441A1, “NOVEL HETEROARYL-TRIAZOLE COMPOUNDS AS PESTICIDES” (Bayer Aktiengesellschaft, priority 2019, published 2023)
# Experiments:
# Type in all cases: in vivo
# [1] = tested on: green peach aphid (Myzus persicae); assay: Myzus persicae spray test; conditions: foliar, 120 h, 100 g/ha, after 5 days, Chinese cabbage leaf disks
# Protocol: Solvent: 78.0 parts by weight acetone • 1.5 parts by weight dimethylformamide
# Emulsifier: alkylarylpolyglycol ether
# To produce a suitable preparation of active compound, 1 part by weight of active compound is mixed with the stated amount of solvents and is diluted with water, containing an emulsifier concentration of 1000 ppm, to the desired concentration. Further test concentrations are prepared by dilution with emulsifier containing water.
# Chinese cabbage (Brassica pekinensis) leaf disks infected with all instars of the green peach aphid (Myzus persicae), are sprayed with a preparation of the active ingredient of the desired concentration.
# After 5 days mortality in % is determined. 100% means all aphids have been killed and 0% means none of the aphids have been killed.
# [2] = tested on: adult unfed cat fleas (Ctenocephalides felis); assay: Ctenocephalides felis oral test; conditions: 48 h, 100 ppm in cattle blood, after 2 days
# How it was run: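 About 20 adult unfed Ctenocephalides felis fed through parafilm on cattle blood dosed with compound (DMSO stock diluted in blood), blood chamber at 37°C, fleas at room temperature. Mortality (%) scored after 2 days; 100% means all fleas killed.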
# [3] = tested on: adult engorged female ticks (Rhipicephalus microplus); assay: Rhipicephalus (Boophilus) microplus injection test; conditions: 168 h, 4 μg/animal, egg deposition after 7 days, read-out: efficacy (infertile eggs)
# How it was run: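 Compound was dissolved in DMSO at 10 mg per 0.5 mL and diluted with DMSO to the test concentration. Five engorged adult females received a 1 μL abdominal injection and were kept in a climate chamber. After 7 days, fertile egg deposition was scored, with unclear eggs held until hatching at about 42 days; 100% efficacy means all eggs were infertile.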
# [4] = tested on: cattle tick larvae (Rhipicephalus microplus), strain Parkhurst, resistant against synthetic pyrethroids; assay: Rhipicephalus (Boophilus) microplus in-vitro contact test, larval cattle tick; conditions: 5 μg/cm^2 (=500 g/ha), after 48 hours, read-out: efficacy (larvae dead or moribund)
# How it was run: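 Acetone solutions of compound were coated on glass tube walls (900 ppm giving 5 μg/cm^2) and dried. 20–50 pyrethroid-resistant Parkhurst larvae were held per tube at 27° C and 85% relative humidity; after 48 h negative geotaxis scored efficacy as percent larvae dead or moribund.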
# [5] = tested on: larvae of the southern green stink bug (Nezara viridula); assay: Nezara viridula spray test; conditions: in Hordeum vulgare, 96 h
# How it was run: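 Barley plants infested with Nezara viridula larvae were sprayed with compound in acetone/dimethylformamide, diluted in water containing 1000 ppm alkylarylpolyglycol ether emulsifier. Mortality (%) was scored after 4 days; 100% means all stink bugs killed.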
# [6] = tested on: adult cat fleas (Ctenocephalides felis); assay: Ctenocephalides felis in-vitro contact test, adult cat flea; conditions: 5 μg/cm^2 (=500 g/ha), after 48 hours, read-out: efficacy (fleas dead or moribund)
# How it was run: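 Acetone solutions were coated on glass tube walls, 900 ppm giving 5 μg/cm^2. After drying, 5-10 adult fleas per tube were held 48 h at room temperature. Fleas unable to climb away from a 45-50 °C heating plate within 5 min were scored dead or moribund, as % efficacy.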
# [7] = tested on: caterpillars of the fall army worm (Spodoptera frugiperda); assay: Spodoptera frugiperda spray test (cotton leaves); conditions: 168 h
# Protocol: Solvent: 14 parts by weight of dimethylformamide
# Emulsifier: alkylaryl polyglycol ether
# To produce a suitable preparation of active compound, 1 part by weight of active compound is mixed with the stated amount of solvent and is diluted with water, containing an emulsifier concentration of 1000 ppm, to the desired concentration. Further test concentrations are prepared by dilution with emulsifier containing water. Ammonium salt and/or penetration enhancer in a dosage of 1000 ppm are added to the desired concentration if necessary.
# Cotton leaves (Gossypium hirsutum) are treated by being sprayed with the preparation of the active compound of the desired concentration and are infested with caterpillars of the fall army worm (Spodoptera frugiperda).
# After 7 days mortality in % is determined. 100% means all the caterpillars have been killed and 0% means none of the caterpillars have been killed.
# [8] = tested on: green peach aphid (Myzus persicae); assay: Myzus persicae oral test; conditions: 120 h
# How it was run: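 Acetone stock (1 pbw compound/100 pbw solvent) diluted in water; mixed with sugar-supplemented IPL41 medium; parafilm-sealed; mixed aphid population sucks through film; mortality % read at 5 d.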
# [9] = tested on: fall armyworm larvae (Spodoptera frugiperda); assay: Spodoptera frugiperda spray test (maize leaf sections); conditions: 168 h
# How it was run: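 Maize leaf sections were sprayed with compound formulated in acetone/DMF and diluted in water containing 1000 ppm emulsifier. Once dry, sections were infested with fall armyworm larvae. Mortality (%) was scored after 7 days.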
# [10] = tested on: adult brown dog ticks (Rhipicephalus sanguineus); assay: Rhipicephalus sanguineus in-vitro contact test with adult brown dog ticks; conditions: after 48 hours, read-out: efficacy (ticks dead or moribund); for pest or weed control at 1 µg/cm2, 100 g/ha: 1 μg/cm^2 (=100 g/ha); for pest or weed control at 5 µg/cm2, 500 g/ha: 5 μg/cm^2 (=500 g/ha)
# How it was run: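 Compound in acetone coated onto glass tube inner walls at 900 ppm, giving 5 μg/cm^2. Adult ticks (5-10 per tube) held at room temperature for 48 h, then placed on a 45-50° C. heating plate for up to 5 min. Ticks unable to climb away counted dead or moribund; efficacy given as % dead/moribund.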
# [11] = tested on: larvae of the banded cucumber beetle (Diabrotica balteata); assay: Diabrotica balteata spray test; conditions: 168 h, 100 g/ha (=32 μg/well), after 7 days, wheat seeds, read-out: efficacy (seedlings grown up)
# How it was run: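 Germinated wheat seedlings (5 per well, agar plates) sprayed with compound in acetone/DMF diluted in water with 1000 ppm emulsifier, then infested with 10-20 larvae per unit. Efficacy scored after 7 days as % seedling growth relative to untreated, uninfested control (100% = normal growth, 0% = none).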
# [12] = tested on: brown planthopper (Nilaparvata lugens); assay: Nilaparvata lugens spray test; conditions: in Oryza sativa, 96 h
# How it was run: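 Rice plants (Oryza sativa) sprayed with compound in acetone/DMF diluted in water containing 1000 ppm alkylarylpolyglycol ether emulsifier, then infested with planthoppers. Mortality % scored after 4 days (100% = all killed, 0% = none killed).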
SMILES,mortality at 100 g/ha [1] [%],mortality at 100 ppm [2] [%],pest or weed control at 0.004 mg [3] [%],pest or weed control at 5 µg/cm2 [4] [%],mortality at 100 g/ha [5] [%],pest or weed control at 5 µg/cm2 [6] [%],mortality at 20 ppm [7] [%],mortality at 4 ppm [8] [%],mortality at 100 g/ha [9] [%],"pest or weed control at 1 µg/cm2, 100 g/ha [10] [%]","pest or weed control at 5 µg/cm2, 500 g/ha [10] [%]","pest or weed control at 32 µg/disc, 100 g/ha [11] [%]",mortality at 500 g/ha [12] [%],mortality at 500 g/ha [5] [%]
CNc1nc(C(C)NC(=O)c2cc(Br)cc(C(F)(F)F)c2)n(-c2ncccn2)n1 (stereo not shown) [I-092],90,100,100,100,100,100,80,100,100,100,100,100,–,–
CC(NC(=O)c1cc(OC(F)(F)F)cc(C2CC2)c1)c1nc(N)nn1-c1ncccn1 (stereo not shown) [I-097],100,100,100,90,100,90,100,100,100,–,–,100,–,–
CNc1nc(C(C)NC(=O)c2cc(OC(F)(F)F)cc(C3CC3)c2)n(-c2ncccn2)n1 (stereo not shown) [I-101],90,100,100,100,–,100,100,100,100,100,100,100,–,–
CNc1nc(C(C)NC(=O)c2cc(Br)cc(OC(F)(F)F)c2)n(-c2ncccn2)n1 (stereo not shown) [I-103],90,100,100,100,100,100,100,100,100,100,100,100,–,–
CC(NC(=O)c1cc(C(F)(F)F)cc(C(F)(F)F)c1)c1nc(N)nn1-c1ccc(C#N)cn1 (stereo not shown) [I-104],–,100,100,100,–,100,100,100,100,100,100,100,–,–
CNc1nc([C@H](C)NC(=O)c2cc(Cl)cc(OC(F)(F)F)c2)n(-c2ncccn2)n1 [I-129],90,–,–,100,–,100,100,–,100,80,80,100,90,100
C[C@H](NC(=O)c1cc(Br)cc(OC(F)(F)F)c1)c1nc(N(C)C)nn1-c1ncccn1 [I-139],–,–,–,100,–,100,100,–,100,80,100,100,100,100
C[C@H](NC(=O)c1cc(Br)cc(Br)c1)c1nc(N(C)C)nn1-c1ncccn1 [I-140],90,–,–,100,–,100,100,–,100,100,100,100,90,90
CON(C)c1nc([C@H](C)NC(=O)c2cc(OC(F)(F)F)cc(C3CC3)c2)n(-c2ncccn2)n1 [I-152],90,–,–,–,–,–,100,–,100,–,–,100,100,100
C[C@H](NC(=O)c1cc(Cl)cc(C(C)(C)C#N)c1)c1nc(N)nn1-c1ccc(C#N)cn1 [I-155],100,–,–,100,–,100,100,–,100,100,100,100,100,100
